Reference: PubChem BioAssay AID1918930 (Molecular Pharmacology Branch, DTP, NCI, 2023)

Test system: 233499-124-R-J3-PDC complex spheroid viability, % test/control
Assay: Anticancer human tumor 233499-124-R-J3-PDC patient-derived colon adenocarcinoma cell line growth inhibition
Settings: for IC50: curve of first compound; for viability, T/C: stronger effect = lower value
Method in brief: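 Drug combinations with the LSD1 inhibitor iadademstat tested on tumor cells co-cultured as spheroids with endothelial cells and mesenchymal stem cells. Concentrations descended in half-log increments from clinical Cmax or 10 microM.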

[1] = second compound 0.1 µM, first compound 0.0316 µM
[2] = second compound 0.1 µM, first compound 0.1 µM
[3] = second compound 0.316 µM, first compound 0.0316 µM
[4] = second compound 0.316 µM, first compound 0.1 µM
[5] = second compound 1 µM, first compound 0.0316 µM
[6] = second compound 1 µM, first compound 0.1 µM
[7] = second compound 3.16 µM, first compound 0.0316 µM
[8] = second compound 3.16 µM, first compound 0.1 µM
[9] = second compound 10 µM, first compound 0.0316 µM
[10] = second compound 10 µM, first compound 0.1 µM
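Further: spheroids exposed to agents for one week before readout.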

`Nc1ccn(C2OC(CO)C(O)C2(F)F)c(=O)n1` (stereo not given) + NC1CCC(NC2CC2c2ccccc2)CC1 showed an IC50 (second compound 0.1 µM) of 2.48 nM, an IC50 (second compound 0.316 µM) of 4.47 nM and an IC50 (second compound 1 µM) of 6.13 nM. For the same compound, the IC50 (second compound 3.16 µM) was 1.07 nM, the IC50 (second compound 10 µM) was < 0.949 nM and the viability, T/C (second compound 0.1 µM, first compound 0.000949 µM) was 100%. It also gave a viability, T/C (second compound 0.1 µM, first compound 0.003 µM) of 35.6%, a viability, T/C (second compound 0.1 µM, first compound 0.00949 µM) of 43.9% and a viability, T/C (second compound 0.1 µM, first compound 0.03 µM) of 21.9%. For the same compound, the viability, T/C (second compound 0.1 µM, first compound 0.0949 µM) was 30.3%, the viability, T/C (second compound 0.1 µM, first compound 0.3 µM) was 21.1% and the viability, T/C (second compound 0.316 µM, first compound 0.000949 µM) was 99.4%. It also gave a viability, T/C (second compound 0.316 µM, first compound 0.003 µM) of 58.8%, a viability, T/C (second compound 0.316 µM, first compound 0.00949 µM) of 22.2% and a viability, T/C (second compound 0.316 µM, first compound 0.03 µM) of 32.3%. The viability, T/C (second compound 0.316 µM, first compound 0.0949 µM) was 37.9%, the viability, T/C (second compound 0.316 µM, first compound 0.3 µM) was 41.5% and the viability, T/C (second compound 1 µM, first compound 0.000949 µM) was 88.7%. The viability, T/C (second compound 1 µM, first compound 0.003 µM) was 62.1%, the viability, T/C (second compound 1 µM, first compound 0.00949 µM) was 44.4% and the viability, T/C (second compound 1 µM, first compound 0.03 µM) was 31.1%. It also gave a viability, T/C (second compound 1 µM, first compound 0.0949 µM) of 26.6%, a viability, T/C (second compound 1 µM, first compound 0.3 µM) of 35.1% and a viability, T/C (second compound 3.16 µM, first compound 0.000949 µM) of 51.4%. It also gave a viability, T/C (second compound 3.16 µM, first compound 0.003 µM) of 40.9%, a viability, T/C (second compound 3.16 µM, first compound 0.00949 µM) of 36.9% and a viability, T/C (second compound 3.16 µM, first compound 0.03 µM) of 47.2%. The viability, T/C (second compound 3.16 µM, first compound 0.0949 µM) was 18.9%, the viability, T/C (second compound 3.16 µM, first compound 0.3 µM) was 39.5% and the viability, T/C (second compound 10 µM, first compound 0.000949 µM) was 59.2%. It also gave a viability, T/C (second compound 10 µM, first compound 0.003 µM) of 29.7%, a viability, T/C (second compound 10 µM, first compound 0.00949 µM) of 29.2% and a viability, T/C (second compound 10 µM, first compound 0.03 µM) of 34.9%. The viability, T/C (second compound 10 µM, first compound 0.0949 µM) was 27.3% and the viability, T/C (second compound 10 µM, first compound 0.3 µM) was 37%.
For `CC[C@@]1(O)C(=O)OCc2c1cc1n(c2=O)Cc2cc3c(CN(C)C)c(O)ccc3nc2-1` + NC1CCC(NC2CC2c2ccccc2)CC1, the IC50 (second compound 0.1 µM) was > 100 nM, the IC50 (second compound 0.316 µM) was 31.6 nM and the IC50 (second compound 1 µM) was > 100 nM. For the same compound, the IC50 (second compound 3.16 µM) was > 100 nM, the IC50 (second compound 10 µM) was > 100 nM and the viability, T/C (second compound 0.1 µM, first compound 0.000316 µM) was 104%. The viability, T/C (second compound 0.1 µM, first compound 0.001 µM) was 76.6%, the viability, T/C (second compound 0.1 µM, first compound 0.00316 µM) was 79.7% and the viability, T/C (second compound 0.1 µM, first compound 0.01 µM) was 64%. The viability, T/C [1] was 71.9%, the viability, T/C [2] was 87.9% and the viability, T/C (second compound 0.316 µM, first compound 0.000316 µM) was 93.7%. It also gave a viability, T/C (second compound 0.316 µM, first compound 0.001 µM) of 80.1%, a viability, T/C (second compound 0.316 µM, first compound 0.00316 µM) of 88.9% and a viability, T/C (second compound 0.316 µM, first compound 0.01 µM) of 47.5%. It also gave a viability, T/C [3] of 54.5%, a viability, T/C [4] of 66.1% and a viability, T/C (second compound 1 µM, first compound 0.000316 µM) of 65.9%. The viability, T/C (second compound 1 µM, first compound 0.001 µM) was 63.9%, the viability, T/C (second compound 1 µM, first compound 0.00316 µM) was 50.3% and the viability, T/C (second compound 1 µM, first compound 0.01 µM) was 51.5%. It also gave a viability, T/C [5] of 71.2%, a viability, T/C [6] of 63.8% and a viability, T/C (second compound 3.16 µM, first compound 0.000316 µM) of 92%. For the same compound, the viability, T/C (second compound 3.16 µM, first compound 0.001 µM) was 74.9%, the viability, T/C (second compound 3.16 µM, first compound 0.00316 µM) was 56.8% and the viability, T/C (second compound 3.16 µM, first compound 0.01 µM) was 53.6%. The viability, T/C [7] was 58.8%, the viability, T/C [8] was 69.9% and the viability, T/C (second compound 10 µM, first compound 0.000316 µM) was 76.9%. For the same compound, the viability, T/C (second compound 10 µM, first compound 0.001 µM) was 82.9%, the viability, T/C (second compound 10 µM, first compound 0.00316 µM) was 68.4% and the viability, T/C (second compound 10 µM, first compound 0.01 µM) was 48%. The viability, T/C [9] was 60.8% and the viability, T/C [10] was 80.7%.
`O=C(c1cc(Cc2n[nH]c(=O)c3ccccc23)ccc1F)N1CCN(C(=O)C2CC2)CC1` + NC1CCC(NC2CC2c2ccccc2)CC1 was tested, and the IC50 (second compound 0.1 µM) was > 10000 nM, the IC50 (second compound 0.316 µM) was > 10000 nM and the IC50 (second compound 1 µM) was > 10000 nM. The IC50 (second compound 3.16 µM) was > 10000 nM, the IC50 (second compound 10 µM) was > 10000 nM and the viability, T/C [1] was 101%. It also gave a viability, T/C [2] of 107%, a viability, T/C (second compound 0.1 µM, first compound 0.316 µM) of 102% and a viability, T/C (second compound 0.1 µM, first compound 1 µM) of 102%. The viability, T/C (second compound 0.1 µM, first compound 3.16 µM) was 91.7%, the viability, T/C (second compound 0.1 µM, first compound 10 µM) was 81.6% and the viability, T/C [3] was 109%. It also gave a viability, T/C [4] of 102%, a viability, T/C (second compound 0.316 µM, first compound 0.316 µM) of 90.5% and a viability, T/C (second compound 0.316 µM, first compound 1 µM) of 92.3%. It also gave a viability, T/C (second compound 0.316 µM, first compound 3.16 µM) of 85.6%, a viability, T/C (second compound 0.316 µM, first compound 10 µM) of 97.3% and a viability, T/C [5] of 94.5%. It also gave a viability, T/C [6] of 83.3%, a viability, T/C (second compound 1 µM, first compound 0.316 µM) of 71.1% and a viability, T/C (second compound 1 µM, first compound 1 µM) of 81.3%. The viability, T/C (second compound 1 µM, first compound 3.16 µM) was 86.1%, the viability, T/C (second compound 1 µM, first compound 10 µM) was 95% and the viability, T/C [7] was 82.7%. For the same compound, the viability, T/C [8] was 90.5%, the viability, T/C (second compound 3.16 µM, first compound 0.316 µM) was 84.8% and the viability, T/C (second compound 3.16 µM, first compound 1 µM) was 75.3%. It also gave a viability, T/C (second compound 3.16 µM, first compound 3.16 µM) of 87.1%, a viability, T/C (second compound 3.16 µM, first compound 10 µM) of 79.5% and a viability, T/C [9] of 79.4%. For the same compound, the viability, T/C [10] was 68.2%, the viability, T/C (second compound 10 µM, first compound 0.316 µM) was 67.8% and the viability, T/C (second compound 10 µM, first compound 1 µM) was 69.2%. The viability, T/C (second compound 10 µM, first compound 3.16 µM) was 79.6% and the viability, T/C (second compound 10 µM, first compound 10 µM) was 69%.
